Data reported in patent publication US20060069132A1, “Azolecarboxamide herbicides” (priority 2004, published 2006).

How the values were obtained:
[1] = tested on: barnyardgrass; test: Test B pre-/postemergence herbicide test; assay type: in vivo, Echinochloa crus-galli; settings: for Plant response rating, Barnyardgrass: visual rating after 13 to 15 days
How it was run: (§1)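 Test chemicals in a non-phytotoxic solvent mixture with surfactant were applied preemergence to seeded species and postemergence to plants 2-18 cm tall (1- to 4-leaf stage); rice and barnyardgrass were also tested in a flooded paddy at the 2-leaf stage. Visual rating versus controls after 13-15 days in greenhouse, scale 0 (no effect) to 100 (complete control).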

[2] = tested on: Surinam grass; test: Test B pre-/postemergence herbicide test; assay type: in vivo, Urochloa decumbens; settings: for Surinam Grass plant response rating: Preemergence, scale 0 to 100
How it was run: (§2)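 Flooded paddy rice and barnyardgrass were treated at the 2-leaf stage; upland plantings received compound either on sown seed or on 1- to 4-leaf seedlings. All were kept 13–15 days in a greenhouse and scored visually, 0–100, relative to untreated plants.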

[3] = tested on: cocklebur; test: Test B pre-/postemergence herbicide test; assay type: in vivo, Xanthium strumarium; settings: for Plant response rating, Cocklebur: visual rating after 13 to 15 days
How it was run: as §1

[4] = tested on: large crabgrass; test: Test B pre-/postemergence herbicide test; assay type: in vivo, Digitaria sanguinalis; settings: for Plant response rating, Crabgrass, Large: visual rating after 13 to 15 days
How it was run: as §2

[5] = tested on: giant foxtail; test: Test B pre-/postemergence herbicide test; assay type: in vivo, Setaria faberi
How it was run: as §2

[6] = tested on: lambsquarters; test: Test B pre-/postemergence herbicide test; assay type: in vivo, Chenopodium album
How it was run: as §2

[7] = tested on: morningglory; test: Test B pre-/postemergence herbicide test; assay type: in vivo, Ipomoea coccinea
How it was run: as §1

[8] = tested on: pigweed; test: Test B pre-/postemergence herbicide test; assay type: in vivo, Amaranthus retroflexus; settings: for Pigweed plant response rating: Preemergence, scale 0 to 100
How it was run: as §2

[9] = tested on: velvetleaf; test: Test B pre-/postemergence herbicide test; assay type: in vivo, Abutilon theophrasti; settings: for Velvetleaf plant response rating: Preemergence, scale 0 to 100
How it was run: as §2

[10] = tested on: blackgrass; test: Test B postemergence herbicide test; assay type: in vivo, Alopecurus myosuroides; settings: Postemergence, scale 0 (no effect) to 100 (complete control); for Blackgrass plant response rating: 125 g ai/ha; for Plant response rating, Blackgrass: 500 g ai/ha, visual rating after 13 to 15 days
How it was run: (§3)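 Paddy species grown to the 2-leaf stage under flooding; blackgrass sprayed postemergence at 2–18 cm (1- to 4-leaf stage). Plants kept in a greenhouse for 13 to 15 days, then visually rated against controls on 0 (no effect) to 100 (complete control).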

[11] = tested on: wheat; test: Test B postemergence herbicide test; assay type: in vivo, Triticum aestivum; settings: Postemergence, 500 g ai/ha; visual rating after 13 to 15 days, scale 0 (no effect) to 100 (complete control)
How it was run: (§4)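 Postemergence plants were sprayed with formulated test chemicals at 2 to 18 cm height (1- to 4-leaf stage); paddy species were grown to the 2-leaf stage. After 13 to 15 days in a greenhouse, injury was rated visually against untreated controls on a 0–100 scale (0 = no effect, 100 = complete control).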

[12] = tested on: wild oat; test: Test B postemergence herbicide test; assay type: in vivo, Avena fatua; settings: Postemergence, scale 0 (no effect) to 100 (complete control); for Oat, Wild plant response rating: 125 g ai/ha; for Plant response rating, Oat, Wild: 500 g ai/ha, visual rating after 13 to 15 days
How it was run: as §4

[13] = tested on: rice; test: Test B flooded paddy test; assay type: in vivo, Oryza sativa; settings: 1000 g ai/ha, visual rating, scale 0 to 100 (0 no effect, 100 complete control), 13 to 15 days
How it was run: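 After treating 2-leaf paddy plants or 2–18 cm postemergence plants (1 to 4 leaves) with formulated chemical, researchers kept them in a greenhouse for 13–15 days. Effects were judged visually versus controls: 0 indicates none, 100 total control.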

[14] = tested on: small flower umbrella sedge; test: Test B flooded paddy test; assay type: in vivo, Cyperus difformis; settings: 1000 g ai/ha, visual rating, scale 0 to 100 (0 no effect, 100 complete control), 13 to 15 days
How it was run: as §3

[15] = tested on: barnyardgrass; test: Test B flooded paddy test; assay type: in vivo, Echinochloa crus-galli; settings: 1000 g ai/ha, visual rating, scale 0 to 100 (0 no effect, 100 complete control), 13 to 15 days
How it was run: as §3

[16] = Postemergence, 125 g ai/ha, scale 0 (no effect) to 100 (complete control)
[17] = Postemergence, 500 g ai/ha, scale 0 (no effect) to 100 (complete control)
[18] = Preemergence, 500 g ai/ha, scale 0 to 100
[19] = Postemergence, 500 g ai/ha, visual rating after 13 to 15 days, scale 0 (no effect) to 100 (complete control)
[20] = preemergence, 125 g ai/ha, 0 to 100 scale, 0 is no effect, 100 is complete control

Structure (SMILES) | Barnyardgrass plant response rating [1, 16] | Plant response rating, Barnyardgrass [1, 17] | Barnyardgrass plant response rating [1, 18] | Plant response rating, Surinam Grass [2, 19] | Surinam Grass plant response rating ([2]; 500 g ai/ha) | Plant response rating, Surinam Grass [2, 20] | Cocklebur plant response rating [3, 16] | Plant response rating, Cocklebur [3, 17] | Cocklebur plant response rating [3, 18] | Crabgrass, Large plant response rating [4, 16] | Plant response rating, Crabgrass, Large [4, 17] | Crabgrass, Large plant response rating [4, 18] | Foxtail, Giant plant response rating [5, 16] | Plant response rating, Foxtail, Giant [5, 19] | Foxtail, Giant plant response rating [5, 18] | Plant response rating, Foxtail, Giant [5, 20] | Lambsquarters plant response rating [6, 16] | Plant response rating, Lambsquarters [6, 19] | Lambsquarters plant response rating [6, 18] | Plant response rating, Lambsquarters [6, 20] | other results
CCNC(=O)c1cccc(NC(=O)c2cc(C(C)(C)C)nn2CC(F)(F)F)c1 [Compound 31] | 10 | 50 | 90 | 60 | 60 | 30 | 80 | 90 | 40 | 20 | 30 | 50 | 20 | 30 | 90 | 60 | 90 | 90 | 100 | 90 | Morningglory plant response rating [7, 16]: 30; Plant response rating, Morningglory [7, 19]: 70; Morningglory plant response rating [7, 18]: 80; Plant response rating, Pigweed [8, 19]: 90; Pigweed plant response rating ([8]; 500 g ai/ha): 100; Plant response rating, Pigweed [8, 20]: 70; Plant response rating, Velvetleaf [9, 19]: 50; Velvetleaf plant response rating ([9]; 500 g ai/ha): 90; Plant response rating, Velvetleaf [9, 20]: 80; Blackgrass plant response rating [10]: 0; Plant response rating, Blackgrass [10]: 50; Plant response rating, Wheat [11]: 10; Oat, Wild plant response rating [12]: 20; Plant response rating, Oat, Wild [12]: 30; Rice plant response rating [13]: 80; Sedge, Umbrella plant response rating [14]: 50; Barnyardgrass plant response rating [15]: 80
C=Cn1nc(C(C)(C)C)cc1C(=O)Nc1cccc(C(=O)N(CC)CC)c1 [Compound 34] | 20 | 30 | 80 | 50 | 80 | 20 | 40 | 90 | 10 | 20 | 20 | 100 | 30 | 30 | 90 | 30 | 80 | 90 | 100 | 80 | Morningglory plant response rating [7, 18]: 20; Plant response rating, Morningglory [7, 20]: 0; Plant response rating, Pigweed [8, 19]: 90; Pigweed plant response rating ([8]; 500 g ai/ha): 100; Plant response rating, Pigweed [8, 20]: 100; Plant response rating, Velvetleaf [9, 19]: 50; Velvetleaf plant response rating ([9]; 500 g ai/ha): 60; Plant response rating, Velvetleaf [9, 20]: 20; Blackgrass plant response rating [10]: 10; Plant response rating, Blackgrass [10]: 20; Plant response rating, Wheat [11]: 30; Oat, Wild plant response rating [12]: 10; Plant response rating, Oat, Wild [12]: 10; Rice plant response rating [13]: 50; Sedge, Umbrella plant response rating [14]: 80; Barnyardgrass plant response rating [15]: 80
